Entries after “also recorded” stand apart in the source; their conditions may differ.
Key:
[1] = system: Arabidopsis wildtype plants; experiment: Growth (root length) of Arabidopsis wildtype plants on media with low-dose herbicides, alone and combined; format: in vivo
Experimental: Because Cellulosin has different target as isoxaben, indaziflam and C17. Since the need to avoid the development of herbicide-resistant weeds that is caused by repetitive application of the same herbicide is utmost, we decided to test whether application of Cellulosin together with isoxaben, indaziflam and C17 would make it possible to control the weeds more efficiently with reduced dosage of two herbicides.
Statistically significant differences in right panels were determined by one-way ANOVA test followed by Tukey's multiple comparisons test. Different letters of root length of seedlings indicate significant difference between groups (p<0.05). N=12.
[…] Bar, 1 cm.
Because Cellulosin and isoxaben target CesA at different sites, it allowed us to hypothesize that application of both herbicides at the same time will make it possible to control the weeds with reduced dosage of both herbicides. This should also avoid the development of herbicide-resistant weeds that is caused by repetitive application of the same herbicide. We tested the growth of Arabidopsis at lower dosage of both Cellulosin and isoxaben.

[2] = system: Cellulosin resistant mutants (cesa6); experiment: Growth (root length) of Cellulosin resistant cesa6 mutants on supplemented media; format: in vivo, Arabidopsis; details: media supplemented with the compound, compared with DMSO control
Excerpt: (§1) Recently, we discovered a new cellulose synthase inhibitor Cellulosin and a group of cesa6 mutants that carry mis-sense mutations at the central cytoplasmic region that contains the catalytic motif and are resistant to Cellulosin. In order to test whether Cellulosin has the same mode of action as isoxaben, indaziflam and C17, we first tested the growth of isoxaben resistant mutants on media supplemented with Cellulosin. […] We next tested the growth of our Cellulosin resistant mutants on isoxaben, indaziflam and C17.
FIGS. 2E-2G depict quantifications of root length of Cellulosin resistant mutants on media supplemented with isoxaben (FIG. 2E), indaziflam (FIG. 2F), and C17 (FIG. 2G) in comparison with DMSO control, Statistically significant differences in right panels were determined by one-way ANOVA test followed by Tukey's multiple comparisons test. Different letters of root length of seedlings indicate significant difference between groups (p<0.05). Bars: 1 cm.

[3] = system: plants expressing CesA6 carrying mis-sense mutations at the catalytic site; experiment: Growth of transgenic plants expressing CesA6 with mis-sense mutations at the hypothesized Cellulosin binding sites; format: in vivo, Arabidopsis; details: cesa6 loss-of-function mutant background; compared with DMSO control
Excerpt: as §1

[4] = system: Arabidopsis mutants ixr1-1, ixr1-2 and ixr2-1; experiment: Growth (root length) of isoxaben resistant mutants ixr1-1, ixr1-2, ixr2-1 on supplemented media; format: in vivo; details: media supplemented with the compound
Excerpt: as §1
Wildtype (WT) Arabidopsis and its mutants ixr1-1, ixr1-2, and ixr2-1 are grown on media supplemented with DMSO (FIGS. 1A-1B), isoxaben (FIGS. 1C-1D) or Cellulosin (FIGS. 1E-1F) and their quantifications on their root length. Arabidopsis mutants ixr1-1, ixr1-2 and ixr2-1 have longer roots in compare with wildtype (Col) on media supplemented with isoxaben. […] Bars: 1 cm

SMILES	plant growth inhibition ([1]; 0.06 nM indaziflam alone in growth media)	plant growth inhibition ([1]; 0.25 nM indaziflam alone in growth media)	sensitivity of Cellulosin resistant mutants in growth (root length) [2]	resistance / sensitivity in growth of plants expressing mutated CesA6 [3]	plant growth inhibition ([1]; 3.5 nM isoxaben alone, nine days old plants)	plant growth inhibition ([1]; 4 nM isoxaben alone in growth media)	growth / root length of isoxaben resistant mutants compared with wildtype (Col) [4]
Cc1ccc2c(c1)[C@H](Nc1nc(N)nc(C(C)F)n1)[C@@H](C)C2 (stereo partly drawn) [indaziflam]	did not inhibit plant growth; also recorded: does not significantly inhibit plant growth	not inhibited	Most of our mutants that are resistant to Cellulosin are sensitive; also recorded: only a few of our mutants show reduced sensitivity	do not show resistance; also recorded: they have the same sensitivity			
CCC(C)(CC)c1cc(NC(=O)c2c(OC)cccc2OC)on1 [isoxaben, N-3[1-ethyl-1-methylpropyl]-5-isoxazolyl-2,6, or dimethoxybenzamide]			Most of our mutants that are resistant to Cellulosin are sensitive; also recorded: only a few of our mutants show reduced sensitivity	do not show resistance; also recorded: they have the same sensitivity	Neither 300 nM Cellulosin nor 3.5 nM isoxaben significantly inhibits plant growth; also recorded: does not significantly inhibit plant growth	not inhibited; also recorded: did not inhibit plant growth; also recorded: does not significantly inhibit plant growth	longer roots

Reference: patent US20240065270A1 (priority 2018, published 2024)
